Results as given in PubChem BioAssay AID1918946 (Molecular Pharmacology Branch, DTP, NCI, 2023).
pIC50: −log10 of the molar value.

System: 885512-296-R-J2-PDC complex spheroid viability
Experiment: Anticancer human tumor 885512-296-R-J2-PDC patient-derived breast carcinoma cell line growth inhibition
Details: for pIC50: curve of first compound; for viability, T/C: stronger effect = lower value
Method in brief: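 Complex spheroids of tumor cells with HUVEC and human MSCs, exposed to iadademstat combined with other agents. Each agent tested in half-log steps from near clinical Cmax (else 10 microM top), DMSO ≤0.25%.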

[1] = second compound 0.1 µM, first compound 0.00949 µM
[2] = second compound 0.1 µM, first compound 0.03 µM
[3] = second compound 0.1 µM, first compound 0.0949 µM
[4] = second compound 0.1 µM, first compound 0.3 µM
[5] = second compound 0.1 µM, first compound 0.949 µM
[6] = second compound 0.1 µM, first compound 3 µM
[7] = second compound 0.316 µM, first compound 0.00949 µM
[8] = second compound 0.316 µM, first compound 0.03 µM
[9] = second compound 0.316 µM, first compound 0.0949 µM
[10] = second compound 0.316 µM, first compound 0.3 µM
[11] = second compound 0.316 µM, first compound 0.949 µM
[12] = second compound 0.316 µM, first compound 3 µM
[13] = second compound 1 µM, first compound 0.00949 µM
[14] = second compound 1 µM, first compound 0.03 µM
[15] = second compound 1 µM, first compound 0.0949 µM
[16] = second compound 1 µM, first compound 0.3 µM
[17] = second compound 1 µM, first compound 0.949 µM
[18] = second compound 1 µM, first compound 3 µM
[19] = second compound 3.16 µM, first compound 0.00949 µM
[20] = second compound 3.16 µM, first compound 0.03 µM
[21] = second compound 3.16 µM, first compound 0.0949 µM
[22] = second compound 3.16 µM, first compound 0.3 µM
[23] = second compound 3.16 µM, first compound 0.949 µM
[24] = second compound 3.16 µM, first compound 3 µM
[25] = second compound 10 µM, first compound 0.00949 µM
[26] = second compound 10 µM, first compound 0.03 µM
[27] = second compound 10 µM, first compound 0.0949 µM
[28] = second compound 10 µM, first compound 0.3 µM
[29] = second compound 10 µM, first compound 0.949 µM
[30] = second compound 10 µM, first compound 3 µM
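Further: spheroids exposed to agents for 7 days before viability read.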

Structure (SMILES)	pIC50 (second compound 0.1 µM)	pIC50 (second compound 0.316 µM)	pIC50 (second compound 1 µM)	pIC50 (second compound 3.16 µM)	pIC50 (second compound 10 µM)	viability, T/C [1]	viability, T/C [2]	viability, T/C [3]	viability, T/C [4]	viability, T/C [5]	viability, T/C [6]	viability, T/C [7]	viability, T/C [8]	viability, T/C [9]	viability, T/C [10]	viability, T/C [11]	viability, T/C [12]	viability, T/C [13]	viability, T/C [14]	viability, T/C [15]	also measured
NS(=O)(=O)OCC1CC(n2ccc3c(NC4CCc5ccccc54)ncnc32)CC1O (stereo not given) + NC1CC1c1ccc(-c2cccc(O)c2)cc1	> 8.02	> 8.02	> 8.02	> 8.02	> 8.02	15.9%	6.61%	2.38%	1.74%	1.42%	1.17%	13.4%	5.58%	2.27%	1.48%	1.54%	1.19%	11.8%	5.8%	2.84%	viability, T/C [16]: 1.53%; viability, T/C [17]: 1.65%; viability, T/C [18]: 1.49%; viability, T/C [19]: 10.9%; viability, T/C [20]: 4.37%; viability, T/C [21]: 2.28%; viability, T/C [22]: 1.46%; viability, T/C [23]: 1.66%; viability, T/C [24]: 1.1%; viability, T/C [25]: 8.81%; viability, T/C [26]: 4.76%; viability, T/C [27]: 1.87%; viability, T/C [28]: 1.89%; viability, T/C [29]: 0.97%; viability, T/C [30]: 0.66%
O=C(C=Cc1cccc(S(=O)(=O)Nc2ccccc2)c1)NO + NC1CC1c1ccc(-c2cccc(O)c2)cc1	< 5.52	7.38	7.15	7.41	7.71	104%	66.5%	26.4%	15.9%	2.01%	136%	106%	61.2%	23.3%	12%	2.58%	116%	96.3%	73.6%	26.6%	viability, T/C [16]: 13.9%; viability, T/C [17]: 1.94%; viability, T/C [18]: 127%; viability, T/C [19]: 92.1%; viability, T/C [20]: 53.6%; viability, T/C [21]: 26.4%; viability, T/C [22]: 14.4%; viability, T/C [23]: 1.95%; viability, T/C [24]: 109%; viability, T/C [25]: 62.8%; viability, T/C [26]: 42.4%; viability, T/C [27]: 16.9%; viability, T/C [28]: 8.77%; viability, T/C [29]: 0.61%; viability, T/C [30]: 82.6%
